# Assay results published in US20110305632A1, “PROCESS FOR THE PREPARATION OF ASYMMETRICAL BIS(THIOSEMICARBAZONES)” (THE UNIVERSITY OF MELBOURNE, priority 2008, published 2011).
# Test: Cyclic voltammetry of Cu(II) bis(thiosemicarbazonato) complexes (half-wave potentials and peak separations)
# Type: physicochemical
# Settings: DMF
# Protocol: Voltametric experiments were performed with an Autolab (Eco Chemie, Utrecht, Netherlands) computer-controlled electrochemical workstation.
# Recent studies have shown that in vivo stability of bifunctional chelators of copper is not only dependent on the thermodynamic stability and kinetic inertness of the complex but also the susceptibility to reduction of Cu(II) to Cu(I). Intracellular reductants with thiols, such as cysteine-rich metallothioneins, may act as effective reductants of Cu(II) and scavengers of the labile Cu(I) ions.
# [1] = cyclic voltammogram, scan rate 0.1 V s^−1, glassy carbon electrode
# [2] = cyclic voltammogram, scan rate 0.1 V s^−1, potentials relative to SCE, glassy carbon electrode
compound,measurement,setting,value
CN=C([S-])N/N=C(C)/C(C)=N/NC([S-])=NC.[Cu+2] [Cu^II(atsm)],reversibility of the Cu(II)/Cu(I) reduction,"cyclic voltammetry, glassy carbon electrode",quasi-reversible
same,Cu^II/Cu^I Epa − Epc (anodic to cathodic peak separation),[1],102 mV
same,Cu^III/Cu^II Epa − Epc (anodic to cathodic peak separation),[1],94 mV
same,Cu^II/Cu^I E1/2,[2],-0.63 V
same,Cu^III/Cu^II E1/2,[2],0.75 V
same,E1/2 of Cu(II)/Cu(I) reduction,"vs. SCE (Fc/Fc+ 0.54 V), glassy carbon working electrode",−0.63 V
